Columns and labels:
[1] = biological target: T1, Monocarboxylate transporter 1 (Rattus norvegicus) (UniProt P53987); test: (§1) TP_TRANSPORTER: inhibition of pyruvate uptake in Xenopus laevis oocytes; format: functional, cell-based; parameters: concentration or dose not given beside the values; conditions: Oocyte
T1 sequence (whole entry): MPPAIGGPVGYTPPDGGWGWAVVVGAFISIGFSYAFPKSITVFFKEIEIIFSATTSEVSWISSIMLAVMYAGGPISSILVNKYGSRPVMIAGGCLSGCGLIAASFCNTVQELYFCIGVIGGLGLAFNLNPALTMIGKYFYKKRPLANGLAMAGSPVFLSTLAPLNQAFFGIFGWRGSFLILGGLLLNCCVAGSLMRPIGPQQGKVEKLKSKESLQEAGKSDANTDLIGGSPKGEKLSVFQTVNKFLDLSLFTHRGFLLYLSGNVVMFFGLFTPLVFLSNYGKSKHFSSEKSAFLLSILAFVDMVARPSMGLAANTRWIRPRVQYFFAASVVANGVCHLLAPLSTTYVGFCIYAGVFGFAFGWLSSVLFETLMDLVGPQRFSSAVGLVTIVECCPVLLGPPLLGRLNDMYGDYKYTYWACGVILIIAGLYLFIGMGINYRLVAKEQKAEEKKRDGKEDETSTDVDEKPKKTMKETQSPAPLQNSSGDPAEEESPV

[2] = biological target: T2, Monocarboxylate transporter 2 (Homo sapiens) (UniProt O60669); test: as §1; format: functional, cell-based; parameters: concentration or dose not given beside the values; conditions: Oocyte
T2 sequence (whole entry): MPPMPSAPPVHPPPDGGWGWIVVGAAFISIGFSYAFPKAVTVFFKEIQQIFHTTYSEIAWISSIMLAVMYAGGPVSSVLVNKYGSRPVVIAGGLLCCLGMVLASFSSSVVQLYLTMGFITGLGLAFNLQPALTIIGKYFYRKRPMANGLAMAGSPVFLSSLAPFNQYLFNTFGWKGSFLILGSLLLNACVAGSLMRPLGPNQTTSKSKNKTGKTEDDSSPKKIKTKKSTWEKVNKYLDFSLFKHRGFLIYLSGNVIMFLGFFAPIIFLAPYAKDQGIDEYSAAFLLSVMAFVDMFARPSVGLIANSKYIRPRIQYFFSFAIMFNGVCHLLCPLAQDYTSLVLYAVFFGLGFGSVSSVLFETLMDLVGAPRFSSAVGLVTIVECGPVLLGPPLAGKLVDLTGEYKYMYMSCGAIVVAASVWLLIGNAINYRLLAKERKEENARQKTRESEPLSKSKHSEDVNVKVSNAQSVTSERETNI

Row | Structure (SMILES) | Activity [1] | Activity [2]
1 | CC(O)CC(=O)O (racemic) | 20% | 30%
2 | CCC(O)C(=O)O (racemic) | 40% | 10%
3 | O=C(O)/C=C/c1cccc(O)c1 | 20% | 30%
4 | O=CC[C@@H](O)[C@H](O)[C@H](O)CO | is not an inhibitor [-] | is not an inhibitor [-]
5 | O=C(O)CCCO | 40% | 10%
6 | CC(O)C(=O)[O-].[Na+] (stereo unspecified) | 0% | 0%
7 | C[C@@H](O)C(=O)O | 30% | 10%
8 | CCOC(=O)/C=C/c1ccc(O)cc1 | 0% | 65%
